These results are taken from patent publication US5248677A, “Biogentic amine uptake inhibitors” (priority 1992, dated 1993).

Holding throughout (assay type): biochemical, rat (Male Sprague-Dawley)
The test system of one test is norepinephrine uptake. Kind of test: NE (norepinephrine) uptake inhibition, synaptosomal preparation (hypothalamus). To be noted: rat hypothalamus synaptosomes, 0.1 μM tritiated amine, 37° C., 4 minutes. The protocol: (§1) For the purpose of identifying compounds as biogenic amine uptake inhibitors capable of interacting with the uptake carrier, ligand-carrier binding assays were carried out as an initial sceen.
(§2) Male Sprague-Dawley derived rats, weighing about 180-250 g each (purchased from Sasco Animal Laboratories, Oregon, Wis.) were sacrificed by decapitation. The brains were immediately removed, placed on a chilled glass plate and dissected according to a modification of the method of Glowinski and Iversen (J. Glowinski and L. L. Iversen, J Neurochem, 1966, 13: 655-669). First, the rhombencephalon was separated by a transverse section and discarded. The rest of the brain was divided into two portions by making another transverse section at the level of the optic chiasma. The hypothalamus, which was used for norepinephrine uptake studies, was removed from the posterior part by using the anterior commissure as the horizontal reference point and a line between the posterior hypothalamus and mammillary bodies as the caudal limit. The striatum, which was used for dopamine uptake studies, was also dissected from the posterior portion using the external wall of the lateral ventricle as the internal limit and the corpus collosum as the external limit. The frontal parts of the striatum were removed from the anterior portion of the cerebrum and combined with the striatal tissue from the posterior segment. The cortex, which was used for serotonin uptake studies, was composed of the rest of the anterior portion of the cerebrum and the cortical surfaces removed from the posterior segment. The hypothalamus and the striatum each weighed about 100 mg or slightly less, whereas the cortex weighed up to 800 mg. The tissues were placed in a cold Potter-Elvehjem glass homogenizer with 5 (cortex) or 10 (hypothalamus) or 20 (striatum) volumes of ice-cold 0.32M sucrose, pH 7, and homogenized by hand. The homogenate was centrifuged (on a Multifuge®, American Scientific Products) at 2500 rpm for 10 minutes in a refrigerated room (~4° C.). The supernatant fraction containing the synaptosomes was decanted, mixed thoroughly and kept on crushed ice for use in the uptake studies.
(§3) Uptake studies were conducted according to the method of Snyder and Coyle (S. H. Snyder and J. T. Coyle, J Pharmacol Exp Ther, 1969, 165: 78-86) with minor modifications. Usually a 0.1 mL aliquot of the synaptosomal preparation was incubated in a mixture of 0.75 mL of modified Krebs-Ringerbuffer, 0.05 mL of the drug being tested, and 0.1 mL of a 1 μM solution of the labeled (tritiated) amine (final concentration 0.1 μM), for a total volume of 1 mL. The modified Krebs-Ringer bicarbonate buffer used in these studies contained 118 mM sodium chloride, 4 mM potassium chloride, 1.3 mM calcium chloride, 1.12 mM potassium dihydrogen phosphate, 1.2 mM magnesium sulfate and 24 mM sodium bicarbonate, with the addition of 5 mM glucose, 0.15 mM disodium EDTA, 12.5 μM nialamide and 1 mM ascorbic acid. Uptake was initiated by the addition of the tritiated amine and the mixture was incubated at 37° C. in a Dubnoff Metabolic Shaking Incubator for 4 minutes. A preincubation period was not included since it had been reported that results were similar with and without preincubation of the synaptosomal preparation (G. Vosmer, et al. Biochem Pharmacol, 1980, 24: 2557-2562). Control incubations without the test drug were conducted at 37° C. to determine total uptake and at 0° C. (in a crushed ice bath) to correct for the diffusion of the tritiated amine into the synaptosomes and/or binding.
(§4) Filtration was used to terminate uptake and collect the synaptosomes (C. A. Csernansky, et al. J Pharmacol Methods, 1985, 13: 187-191). In the filtration technique, the incubation mixture was diluted with ice-cold 0.9% aqueous sodium chloride solution and filtered through GF/B glass microfiber filters (Whatman) under reduced pressure. […]

The subject of another test is 5-HT (serotonin) uptake. Kind of test: 5-HT (serotonin) uptake inhibition, synaptosomal preparation (cortex). Particulars: 5-hydroxytryptamine, rat cortex synaptosomes, 0.1 μM tritiated amine, 37° C., 4 minutes. The procedure:
as §1, §2, §3, §4

The next test deals with dopamine uptake. Kind of test: DA (dopamine) uptake inhibition, synaptosomal preparation (striatum). To be noted: rat striatum synaptosomes, 0.1 μM tritiated amine, 37° C., 4 minutes. The procedure:
as §1, §2, §3, §4

The structures appear in SMILES notation. Where a name gives a salt, the structure may show the parent alone.

Consider `CN1CC2c3ccccc3CCC2C1Cc1cccc(F)c1` (stereo not drawn) [Example 16, cis-3-(3-Fluorophenyl)methyl-2,3,3a,4,5,9b-hexahydro-2-methyl-1H-benz[e]isoindole hydrochloride], for which the half-maximal inhibitory concentration (IC50) (as a rule, the concentration that inhibits the measured activity by half) was found to be 0.05 µM in the test on norepinephrine uptake, 5.45 µM with 5-HT (serotonin) uptake and 0.441 µM with dopamine uptake.

For the compound `Fc1ccc(CC2NCC3c4ccccc4CCC23)cc1` (stereo not drawn) [Example 17, 3-(4-Fluorophenyl)methyl-2,3,3a,4,5,9b-hexahydro-1 H-benz[e]isoindole methanesulfonic acid salt], the half-maximal inhibitory concentration (IC50) in the test on norepinephrine uptake was 0.665 µM; in the test with 5-HT (serotonin) uptake it was 11 µM; in the test on dopamine uptake it was 9.2 µM.

Consider `CN1CC2c3ccccc3CCC2C1Cc1ccc(F)cc1` (stereo not drawn) [Example 18, cis-3-(4-Fluorophenyl)methyl-2,3,3a,4,5,9b-hexahydro-2-methyl-1H-benz[e]isoindole methanesulfonic acid salt], for which the values for the half-maximal inhibitory concentration (IC50) in the test with norepinephrine uptake, in the test on 5-HT (serotonin) uptake and in the test on dopamine uptake were 0.241 µM, 2.91 µM and 4.82 µM, respectively.

In the case of `COc1cccc2c1CCC1C(Cc3ccccc3)NCC21` (stereo not drawn) [Example 21, cis-2,3,3a,4,5,9b-Hexahydro-6-methoxy-3-phenylmethyl-1H-benz[e]isoindole methanesulfonic acid salt], the half-maximal inhibitory concentration (IC50) in the test on norepinephrine uptake is 0.758 µM; with 5-HT (serotonin) uptake, 13.1 µM; with dopamine uptake it was 5.49 µM.

Turning to `COc1cccc2c1CCC1C2CN(C)C1Cc1ccccc1` (stereo not drawn) [Example 22, cis-2,3,3a,4,5,9 b-Hexahydro-6-methoxy-2-methyl-3-phenylmethyl-1H-benz[e]isoindole methanesulfonic acid salt], the IC50 in the test on norepinephrine uptake is 0.06 µM; with 5-HT (serotonin) uptake, 3.44 µM; in the test with dopamine uptake, 0.368 µM.

Take `CCN1CC2c3cccc(OC)c3CCC2C1Cc1ccccc1` (stereo not drawn) [Example 23, cis-2-Ethyl-2,3,3a,4,5,9 b-hexahydro-6-methoxy-3-phenylmethyl-1H-benz[e]isoindole methanesulfonic acid salt]: the figures for the IC50 with norepinephrine uptake, with 5-HT (serotonin) uptake and in the test on dopamine uptake were 0.028 µM, 1.43 µM and 0.141 µM, respectively.

`COc1cccc2c1CCC1C2CN(C)C1Cc1cccc(F)c1` (stereo not drawn) [Example 24, cis-3-(3-Fluorophenyl)methyl-2,3,3a,4,5,9b-hexahydro-6-methoxy-2-methyl-1H-benz[e]isoindole hydrochloride]: the IC50 with norepinephrine uptake stood at 0.104 µM; in the test on 5-HT (serotonin) uptake, 2.47 µM; with dopamine uptake it was 0.17 µM.

With `CCN1CC2c3cccc(OC)c3CCC2C1Cc1cccc(F)c1` (stereo not drawn) [Example 25, cis-2-Ethyl-3-(3-fluorophenyl)methyl-2,3,3a,4,5,9b-hexahydro-6-methoxy-1H-benz[e]isoindole hydrochloride], the IC50 amounted to 0.027 µM in the test on norepinephrine uptake, 1.9 µM in the test with 5-HT (serotonin) uptake and 0.197 µM in the test on dopamine uptake.

As to `COc1ccc2c(c1)CCC1C(Cc3cccc(F)c3)NCC21` (stereo not drawn) [Example 26, trans-3-(3-Fluorophenyl)methyl-2,3,3a,4,5,9b-hexahydro-7-methoxy-1H-benz[e]isoindole hydrochloride], the half-maximal inhibitory concentration (IC50) was determined as 0.603 µM with norepinephrine uptake, 2.25 µM with 5-HT (serotonin) uptake and 9.04 µM in the test on dopamine uptake.

For the compound `COc1ccc2c(c1)CCC1C2CN(C)C1Cc1cccc(F)c1` (stereo not drawn) [Example 27, trans-3-(3-Fluorophenyl)methyl-2,3,3a,4,5,9b-hexahydro-7-methoxy-2-methyl-1H-benz[e]isoindole hydrochloride], the values for the IC50 in the test with norepinephrine uptake, in the test with 5-HT (serotonin) uptake (hydrochloride) and in the test with dopamine uptake (hydrochloride) were 0.189 µM, 2.08 µM and 4.59 µM, respectively.

On to `COc1ccc2c(c1)CCC1C2CN(C)C1Cc1cccc(F)c1` (stereo not drawn) [Example 28, cis-3-(3-Fluorophenyl)methyl-2,3,3a,4,5,9b-hexahydro-7-methoxy-2-methyl-1H-benz[e]isoindole hydrochloride], for which the half-inhibitory concentration (IC50) stood at 0.078 µM in the test on norepinephrine uptake (hydrochloride), 1.87 µM in the test with 5-HT (serotonin) uptake (hydrochloride) and 0.213 µM with dopamine uptake (hydrochloride).

Take `COc1ccc2c(c1OC)CCC1C(Cc3ccccc3)NCC21` (stereo not drawn) [Example 31, hydrochloride]: the concentration for half-maximal inhibition (IC50) with norepinephrine uptake is 0.592 µM; with 5-HT (serotonin) uptake, 14 µM; in the test with dopamine uptake, 5.42 µM.

With `COc1ccc2c(c1OC)CCC1C2CN(C)C1Cc1ccccc1` (stereo not drawn) [Example 32, cis-6,7-Dimethoxy-2,3,3a,4,5,9b-hexahydro-2-methyl-3-phenylmethyl-1H-benz[e]isoindole hydrochloride], the IC50 amounted to 0.113 µM with norepinephrine uptake, 12.7 µM with 5-HT (serotonin) uptake and 0.169 µM with dopamine uptake.

In the case of `CN1CC2c3ccc4c(c3CCC2C1Cc1cccc(F)c1)OCO4` (stereo not drawn) [Example 36, trans-3-(3-Fluorophenyl)methyl-2,3,3a,4,5,9b-hexahydro-2-methyl-6,7-methylenedioxy-1H-benz[e]isoindole methanesulfonic acid salt], the half-maximal inhibitory concentration (IC50) in the test on norepinephrine uptake worked out at 0.062 µM; in the test on 5-HT (serotonin) uptake, 0.964 µM; with dopamine uptake it was 0.952 µM.

For the compound `COc1ccc(C)c2c1CCC1C2CN(C)C1Cc1ccccc1` (stereo not drawn) [Example 38, cis-2,9-Dimethyl-2,3,3a,4,5,9b-hexahydro-6-methoxy-3-phenylmethyl-1H-benz[e]isoindole hydrochloride], the half-inhibitory concentration (IC50) was found to be 0.261 µM in the test on norepinephrine uptake, 3.57 µM in the test on 5-HT (serotonin) uptake and 1.33 µM in the test with dopamine uptake.

For `COc1ccc2c(c1)CCC1CC(Cc3ccccc3)N(C)CC21` (stereo not drawn) [Example 72, cis-8-Methoxy-2-methyl-1,2,3,4,4a,5,6,10b-octahydro-3-phenylmethyl-benz[f]isoquinoline hydrochloride], the 50% inhibitory concentration (IC50) with norepinephrine uptake turned out to be 0.064 µM; in the test on 5-HT (serotonin) uptake it was 5.75 µM; with dopamine uptake, 1.01 µM.
